# Source: US8372831B2, “Isoxazoline linked pyrrolo[2,1-c][1,4]benzodiazepine hybrids as potential anticancer agents and the process for preparation thereof” (Council of Scientific & Industrial Research, priority 2008, dated 2013)
# Columns and labels:
# Format in all cases: cell-based, human
# SK-MEL-5 = experiment: NCI SRB cytotoxicity, SK-MEL-5 (melanoma)
# Procedure: (§1) Biological Activity: The in vitro biological activity studies were carried out at the National Cancer Institute, Maryland, USA.
# (§2) The C8-linked isoxazoline-PBD hybrids have been tested against sixty human tumour cell lines derived from nine cancer types (leukemia, non-small cell lung cancer, colon cancer, CNS cancer, melanoma, ovarian cancer, renal cancer, prostate cancer and breast cancer) as per NCI protocol. For each compound, dose response curves for individual cell lines have been measured at a minimum of five concentrations at 10 fold dilutions. A protocol of 48 hrs continuous drug exposure has been used, and a sulforhodamine B (SRB) protein assay was used to estimate cell viability or growth. The concentration for 50% cell growth inhibition (GI50), total cell growth inhibition (TGI, 0% growth) and 50% cell death (LC50, […]) compared with the control has been calculated (FIG. 2).
# (§3) Compound 5b and 9b have been evaluated for in vitro cytotoxicity in sixty cell lines from nine human cancer types of lung (Hop-62, NCI-H226, NCI-H522), leukemia (K-562, SR), colon (HCT-116, HCT-15, HCC-2998), CNS(SF-539), melanoma (SK-MEL-5, UACC-62, M14), ovarian (IGROV1), renal (A498), prostate (PC3) breast (BT-549, MDA-MB-435, HS578T) origin. The results are expressed as percent of cell growth determined relative to that of untreated control cells (Table 1).
# MCF7 = experiment: NCI SRB cytotoxicity, MCF7 (breast); settings: 48 hrs exposure
# Procedure: as §1, §2, §3
# K-562 = experiment: NCI SRB cytotoxicity, K-562 (leukemia)
# Procedure: as §1, §2, §3
# SK-MEL-28 = experiment: NCI SRB cytotoxicity, SK-MEL-28 (melanoma); settings: 48 hrs exposure
# Procedure: as §1, §2, §3
# A549/ATCC = experiment: NCI SRB cytotoxicity, A549/ATCC (non-small cell lung); settings: Non-smallcell lung, 48 hrs exposure
# Procedure: as §1, §2, §3
# UACC-257 = experiment: NCI SRB cytotoxicity, UACC-257 (melanoma); settings: 48 hrs exposure
# Procedure: as §1, §2, §3
# KM12 = experiment: NCI SRB cytotoxicity, KM12 (colon); settings: 48 hrs exposure
# Procedure: as §1, §2, §3
# SW-620 = experiment: NCI SRB cytotoxicity, SW-620 (colon); settings: 48 hrs exposure
# Procedure: as §1, §2, §3
# NCI-H322M = experiment: NCI SRB cytotoxicity, NCI-H322M (non-small cell lung); settings: Non-smallcell lung, 48 hrs exposure
# Procedure: as §1, §2, §3
# MDA-MB- = experiment: NCI SRB cytotoxicity, MDA-MB- (breast); settings: 48 hrs exposure
# Procedure: as §1, §2, §3
# [1] = system: Non small cell lung cancer; experiment: NCI SRB cytotoxicity, non-small cell lung cancer panel; settings: average of six to eight different cancer cell lines; for Log10 LC50: 50% lethality
# Procedure: as §1, §2, §3
# Ovarian = experiment: NCI SRB cytotoxicity, ovarian cancer panel; settings: average of six to eight different cancer cell lines; for Log10 LC50: 50% lethality
# Procedure: as §1, §2, §3
# MALME-3M = experiment: NCI SRB cytotoxicity, MALME-3M (melanoma); settings: 48 hrs exposure
# Procedure: as §1, §2, §3
# TK-10 = experiment: NCI SRB cytotoxicity, TK-10 (renal); settings: 48 hrs exposure
# Procedure: as §1, §2, §3
# SR = experiment: NCI SRB cytotoxicity, SR (leukemia)
# Procedure: as §1, §2, §3
# MOLT-4 = experiment: NCI SRB cytotoxicity, MOLT-4 (leukemia); settings: 48 hrs exposure
# Procedure: as §1, §2, §3
# PC-3 = experiment: NCI SRB cytotoxicity, PC-3 (prostate)
# Procedure: as §1, §2, §3
# NCI-H23 = experiment: NCI SRB cytotoxicity, NCI-H23 (non-small cell lung); settings: NCI-H23, Non-smallcell lung; 48 hrs exposure
# Procedure: as §1, §2, §3
# HCT-116 = experiment: NCI SRB cytotoxicity, HCT-116 (colon)
# Procedure: as §1, §2, §3
# OVCAR-5 = experiment: NCI SRB cytotoxicity, OVCAR-5 (ovarian); settings: 48 hrs exposure
# Procedure: as §1, §2, §3
# RPMI-8226 = experiment: NCI SRB cytotoxicity, RPMI-8226 (leukemia); settings: 48 hrs exposure
# Procedure: as §1, §2, §3
# NCI-H226 = experiment: NCI SRB cytotoxicity, NCI-H226 (non-small cell lung)
# Procedure: as §1, §2, §3
# 786-0 = experiment: NCI SRB cytotoxicity, 786-0 (renal); settings: 48 hrs exposure
# Procedure: as §1, §2, §3
# HCT-15 = experiment: NCI SRB cytotoxicity, HCT-15 (colon)
# Procedure: as §1, §2, §3
# MDA-MB-468 = experiment: NCI SRB cytotoxicity, MDA-MB-468 (breast); settings: 48 hrs exposure
# Procedure: as §1, §2, §3
# COLO 205 = experiment: NCI SRB cytotoxicity, COLO 205 (colon); settings: 48 hrs exposure
# Procedure: as §1, §2, §3
# RXF 393 = experiment: NCI SRB cytotoxicity, RXF 393 (renal); settings: 48 hrs exposure
# Procedure: as §1, §2, §3
# Leukemia = experiment: NCI SRB cytotoxicity, leukemia panel; settings: average of six to eight different cancer cell lines; for Log10 LC50: 50% lethality
# Procedure: as §1, §2, §3
# CCRF-CEM = experiment: NCI SRB cytotoxicity, CCRF-CEM (leukemia); settings: 48 hrs exposure
# Procedure: as §1, §2, §3
# MDA-MB-435 = experiment: NCI SRB cytotoxicity, MDA-MB-435 (breast)
# Procedure: as §1, §2, §3
# CAKI-1 = experiment: NCI SRB cytotoxicity, CAKI-1 (renal); settings: 48 hrs exposure
# Procedure: as §1, §2, §3
# LOX IMVI = experiment: NCI SRB cytotoxicity, LOX IMVI (melanoma); settings: 48 hrs exposure
# Procedure: as §1, §2, §3
# Renal = experiment: NCI SRB cytotoxicity, renal cancer panel; settings: average of six to eight different cancer cell lines; for Log10 LC50: 50% lethality
# Procedure: as §1, §2, §3
# HOP-92 = experiment: NCI SRB cytotoxicity, HOP-92 (non-small cell lung); settings: HOP-92, Non-smallcell lung; 48 hrs exposure
# Procedure: as §1, §2, §3
# EKVX = experiment: NCI SRB cytotoxicity, EKVX (non-small cell lung); settings: Non-smallcell lung, 48 hrs exposure
# Procedure: as §1, §2, §3
# Prostate = experiment: NCI SRB cytotoxicity, prostate cancer panel; settings: average of six to eight different cancer cell lines; for Log10 LC50: 50% lethality
# Procedure: as §1, §2, §3
# ACHN = experiment: NCI SRB cytotoxicity, ACHN (renal); settings: 48 hrs exposure
# Procedure: as §1, §2, §3
# Melanoma = experiment: NCI SRB cytotoxicity, melanoma panel; settings: average of six to eight different cancer cell lines; for Log10 LC50: 50% lethality
# Procedure: as §1, §2, §3
# [2] = SK-MEL-5, Melanoma, 48 hrs exposure
# [3] = K-562, Leukemia, 48 hrs exposure
# [4] = PC-3, Prostate, 48 hrs exposure
# [5] = HCT-116, Colon, 48 hrs exposure
# [6] = NCI-H226, Non-smallcell lung, 48 hrs exposure
# [7] = MDA-MB-435, Breast, 48 hrs exposure
smiles,measurement,setting,value
"COc1cc(C2=NOC(c3cc(OC)c(OC)c(OC)c3)C2)ccc1OCCCCOc1cc2c(cc1OC)C(=O)N1CCC[C@H]1C=N2 (stereo partly drawn) [Compound 5b, (11aS)-7-(methyloxy)-8-(4-[(2-(methyloxy)-4-5-[3,4,5-tri(methyloxy)phenyl]-4,5-dihydro-3-isoxazolylphenyl)oxy]butyloxy)-2,3,5,11a-tetrahydro-1H benzo[e]pyrrolo[1,2-a][1,4]diazepin-5-one]",GI50,SK-MEL-5; [2],160 nM
same,GI50,SK-MEL-5; melanoma SK-MEL-5,200 nM
same,GI50,MCF7,200 nM
same,GI50,K-562; [3],120 nM
same,GI50,K-562; leukemia K-562,120 nM
same,GI50,SK-MEL-28,200 nM
same,GI50,A549/ATCC,260 nM
same,GI50,UACC-257,270 nM
same,GI50,KM12,220 nM
same,GI50,SW-620,230 nM
same,GI50,NCI-H322M,340 nM
same,GI50,MDA-MB-,190 nM
same,Log10 LC50,[1],−4.78 mol/L
same,Log10GI50,[1],−6.59 mol/L
same,Log10 LC50,Ovarian,−4.84 mol/L
same,Log10GI50,Ovarian,−6.44 mol/L
same,GI50,MALME-3M,210 nM
same,GI50,TK-10,280 nM
same,GI50,"SR; SR, Leukemia, 48 hrs exposure",140 nM
same,GI50,SR; leukemia SR,140 nM
same,GI50,MOLT-4,200 nM
same,GI50,PC-3; [4],320 nM
same,GI50,PC-3; prostate PC-3,320 nM
same,GI50,NCI-H23,270 nM
same,GI50,HCT-116; [5],180 nM
same,GI50,HCT-116; colon cancer HCT-116,180 nM
same,GI50,OVCAR-5,420 nM
same,GI50,RPMI-8226,240 nM
same,GI50,NCI-H226; [6],170 nM
same,GI50,NCI-H226; non-small cell lung cancer NCI-H226,310 nM
same,GI50,786-0,280 nM
same,GI50,"HCT-15; HCT-15, Colon, 48 hrs exposure",180 nM
same,GI50,HCT-15; colon cancer HCT-15,190 nM
same,GI50,MDA-MB-468,220 nM
same,GI50,COLO 205,210 nM
same,GI50,RXF 393,210 nM
same,Log10 LC50,Leukemia,−4.18 mol/L
same,Log10GI50,Leukemia,−6.76 mol/L
same,GI50,CCRF-CEM,160 nM
same,GI50,MDA-MB-435; [7],170 nM
same,GI50,MDA-MB-435; breast MDA-MB-435,170 nM
same,GI50,CAKI-1,250 nM
same,GI50,LOX IMVI,220 nM
same,Log10 LC50,Renal,−4.94 mol/L
same,Log10GI50,Renal,−6.58 mol/L
same,GI50,HOP-92,310 nM
same,GI50,EKVX,460 nM
same,Log10 LC50,Prostate,−4.82 mol/L
same,Log10GI50,Prostate,−6.49 mol/L
same,GI50,ACHN,280 nM
same,Log10 LC50,Melanoma,−5.82 mol/L
same,Log10GI50,Melanoma,−6.68 mol/L
"COc1ccc(C2CC(c3ccc(OC)c(OC)c3OC)=NO2)cc1OCCCCOc1cc2c(cc1OC)C(=O)N1CCC[C@H]1C=N2 (stereo partly drawn) [Compound 9b, (11aS)-7-(methyloxy)-8-(4-[(2-(methyloxy)-5-3-[2,3,4-tri(methyloxy)phenyl]-4,5-dihydro-5-isoxazolylphenyl)oxy]butyloxy)-2,3,5,11a-tetrahydro-1H-benzo[e]pyrrolo[1,2-a][1,4]diazepin-5-one]",GI50,SK-MEL-5; [2],1470 nM
same,GI50,MCF7,1750 nM
same,GI50,K-562; [3],1260 nM
same,GI50,SK-MEL-28,2070 nM
same,GI50,A549/ATCC,2330 nM
same,GI50,UACC-257,2330 nM
same,GI50,KM12,1740 nM
same,GI50,SW-620,1550 nM
same,GI50,NCI-H322M,3460 nM
same,GI50,MDA-MB-,1150 nM
same,Log10 LC50,[1],−4.73 mol/L
same,Log10GI50,[1],−5.70 mol/L
same,Log10 LC50,Ovarian,−4.48 mol/L
same,Log10GI50,Ovarian,−5.61 mol/L
same,GI50,MALME-3M,2880 nM
same,GI50,TK-10,3510 nM
same,GI50,"SR; SR, Leukemia, 48 hrs exposure",1120 nM
same,GI50,MOLT-4,1850 nM
same,GI50,PC-3; [4],580 nM
same,GI50,NCI-H23,1830 nM
same,GI50,HCT-116; [5],1700 nM
same,GI50,OVCAR-5,3130 nM
same,GI50,RPMI-8226,1430 nM
same,GI50,NCI-H226; [6],1670 nM
same,GI50,786-0,1570 nM
same,GI50,"HCT-15; HCT-15, Colon, 48 hrs exposure",2270 nM
same,GI50,MDA-MB-468,1340 nM
same,GI50,COLO 205,1960 nM
same,GI50,RXF 393,1390 nM
same,Log10 LC50,Leukemia,−4.37 mol/L
same,Log10GI50,Leukemia,−5.83 mol/L
same,GI50,CCRF-CEM,1410 nM
same,GI50,MDA-MB-435; [7],3540 nM
same,GI50,CAKI-1,3090 nM
same,GI50,LOX IMVI,1470 nM
same,Log10 LC50,Renal,−4.77 mol/L
same,Log10GI50,Renal,−5.62 mol/L
same,GI50,HOP-92,2470 nM
same,GI50,EKVX,3680 nM
same,Log10 LC50,Prostate,−4.54 mol/L
same,Log10GI50,Prostate,−5.92 mol/L
same,GI50,ACHN,2410 nM
same,Log10 LC50,Melanoma,−5.12 mol/L
same,Log10GI50,Melanoma,−5.72 mol/L
